Patent US7977387B2, “Aminobenzophenone compounds” (Leo Pharma A/S, priority 2003, dated 2011)

How the values were obtained:
[1] = test system: LPS induced TNF-α response; experiment: In vivo screening model of LPS induced TNF-α response in mice; conditions: Mus musculus, mice (C3H/HeN), dosed 1 hour prior to LPS, plasma TNF-α 80-90 minutes after LPS, vs LPS treated control group, read-out: In vivo inhibition of LPS induced TNF-α production (in %)
Description: In Vivo Screening Model of LPS Induced TNF-α Response in Mice
To study the effect of compounds of the present invention in vivo, an in vivo screening model of LPS induced TNF-α response in mice was set up as follows: Groups of 6 mice (C3H/HeN, female, about 8 weeks (20 g), Bomholtgaard) were dosed with test compounds in suspension vehicle 1 hour prior to LPS administration (LPS from E. coli 055:B5, L-4005, Sigma). At time 0, the mice were dosed ip with 1.0 mg LPS/kg. After anesthetization with Hypnorm/Dormicum, the mice were bled from the periorbital venous plexus 80-90 minutes after LPS administration. The blood samples were sampled in EDTA stabilised tubes and centrifuged at 4000 rpm for 10 minutes at 4° C. The plasma level of TNF-α was analysed by ELISA. Compound 156 of WO 98/32730 was used as reference compound. The plasma level of TNF-α was determined using a sandwich ELISA. Microtiter plates were coated with a monoclonal antibody against mouse TNF-α, washed and blocked with a casein buffer. Samples of mouse TNF-α recombinant standards were added to the wells of the microtiter plates and incubated. All standards were tested in triplicate, all plasma samples in single. After sample and standard incubation, the plates were washed and incubated with biotinylated polyclonal secondary antibody against mouse TNF-α and washed. Enzyme conjugate was added to all wells and incubated. Substrate was added and the enzyme/substrate reaction stopped after 15 minutes at room temperature with 1M H2SO4. The colour development (OD) was measured at 450 nm on an ELISA reader and the background OD at 620 nm was subtracted. […] The results of the tested compounds are indicated as a percentage inhibition compared to an LPS treated control group. Compounds were tested at 10 mg/kg. The Mann-Whitney test was used to compare drug treated groups to the LPS treated control group (p<0.05).

[2] = test system: TNF-α; experiment: Inhibition of TNF-α secretion in LPS stimulated peripheral blood mononuclear cells; type: cell-based; conditions: PBMC; LPS stimulated human peripheral blood mononuclear cells, 18 hours, ELISA; read-out: The median inhibition concentration (IC50, nM) of TNF-α
Description: (§1) To study the effect of compounds of the present invention in vitro, the inhibition of IL-1β and TNF-α secretion was determined using the following procedure:
(§2) Cytokine production was measured in the media from lipopolysaccharide (LPS) stimulated peripheral blood mononuclear cells. The mononuclear cells were isolated from human peripheral blood by Lymphoprep® (Nycomed, Norway) fractionation and suspended in RPMI 1640 (growth medium) with foetal calf serum (FCS, 2%), at a concentration of 5×10^5 cells/ml. The cells were incubated in 24-well tissue culture plates in 1 ml aliquots. Test compounds were dissolved in dimethylsulfoxide (DMSO, 10 mM) and were diluted with the medium. Compounds were added to the cells for 30 minutes, then LPS ([…] final concentration) was added. The plates were incubated for 18 hours, and the concentration of IL-β and TNF-α in the medium was determined by enzyme-linked immunosorbent assays. The median inhibitory concentrations (IC50) of the compounds were calculated.

[3] = test system: IL-1β; experiment: Inhibition of IL-1β secretion in LPS stimulated peripheral blood mononuclear cells; type: cell-based; conditions: PBMC; LPS stimulated human peripheral blood mononuclear cells, 18 hours, ELISA; read-out: The median inhibition concentration (IC50, nM) of IL-1β
Description: as §1, §2

Row | IC50 [2] [nM] | IC50 [3] [nM] | Compound | inhibition at 10 mg/kg [1] [%]
1 | 0.6 | 0.9 | COc1ccc(C(=O)NCC(F)F)cc1C(=O)c1ccc(Nc2ccc(F)cc2F)cc1Cl [Compound 141, 3-[2-Chloro-4-(2,4-difluoro-phenylamino)-benzoyl]-N-(2,2-difluoro-ethyl)-4-methoxy-benzamide] | 46
2 | 0.3 | 1.3 | Cc1ccc(C(=O)NCC(N)=O)cc1C(=O)c1ccc(Nc2ccc(F)cc2F)cc1Cl [Compound 145, N-Carbamoylmethyl-3-[2-chloro-4-(2,4-difluoro-phenylamino)-benzoyl]-4-methyl-benzamide] | 94
3 | 0.8 | 2.5 | Cc1ccc(C(=O)NCCF)cc1C(=O)c1ccc(Nc2ccc(F)cc2F)cc1Cl [Compound 147, 3-[2-Chloro-4-(2,4-difluoro-phenylamino)-benzoyl]-N-(2-fluoro-ethyl)-4-methyl-benzamide] | 89
4 | 0.2 | 0.6 | Cc1ccc(C(=O)NCC(F)(F)F)cc1C(=O)c1ccc(Nc2ccc(F)cc2F)cc1Cl [Compound 148, 3-[2-Chloro-4-(2,4-difluoro-phenylamino)-benzoyl]-4-methyl-N-(2,2,2-trifluoro-ethyl) benzamide] | 71
5 | 0.5 | 1.6 | CCNC(=O)c1ccc(C)c(C(=O)c2ccc(Nc3ccc(F)cc3F)cc2Cl)c1 [Compound 149, 3-[2-Chloro-4-(2,4-difluoro-phenylamino)-benzoyl]-N-ethyl-4-methyl-benzamide] | 89
6 | 0.4 | 1.8 | Cc1ccc(C(=O)NCC(C)O)cc1C(=O)c1ccc(Nc2ccc(F)cc2F)cc1Cl (stereo not drawn) [Compound 151, 3-[2-Chloro-4-(2,4-difluoro-phenylamino)-benzoyl]-N-(2-hydroxy-propyl)-4-methyl-benzamide] | 99
7 | 0.6 | 2.8 | Cc1ccc(C(=O)NCC(O)CO)cc1C(=O)c1ccc(Nc2ccc(F)cc2F)cc1Cl (stereo not drawn) [Compound 152, 3-[2-Chloro-4-(2,4-difluoro-phenylamino)-benzoyl]-N-(2,3-dihydroxy-propyl)-4-methyl-benzamide] | 99
8 | 1.6 | 8.9 | CCC(CO)NC(=O)c1ccc(C)c(C(=O)c2ccc(Nc3ccc(F)cc3F)cc2Cl)c1 (stereo not drawn) [Compound 153, 3-[2-Chloro-4-(2,4-difluoro-phenylamino)-benzoyl]-N-(1-hydroxymethyl-propyl)-4-methyl-benzamide] | 86
9 | 0.2 | 0.6 | Cc1ccc(C(=O)NCCCO)cc1C(=O)c1ccc(Nc2ccc(F)cc2F)cc1Cl [Compound 155, 3-[2-Chloro-4-(2,4-difluoro-phenylamino)-benzoyl]-N-(3-hydroxy-propyl)-4-methyl-benzamide] | 91
10 | 0.9 | 4.5 | Cc1ccc(C(=O)NC(C)(C)CO)cc1C(=O)c1ccc(Nc2ccc(F)cc2F)cc1Cl [Compound 156, 3-[2-Chloro-4-(2,4-difluoro-phenylamino)-benzoyl]-N-(2-hydroxy-1,1-dimethyl-ethyl)-4-methyl-benzamide] | 73
11 | 0.9 | 2.2 | Cc1ccc(C(=O)NC(C)(CO)CO)cc1C(=O)c1ccc(Nc2ccc(F)cc2F)cc1Cl [Compound 157, 3-[2-Chloro-4-(2,4-difluoro-phenylamino)-benzoyl]-N-(2-hydroxy-1-hydroxymethyl-1-methyl-ethyl)-4-methyl-benzamide] | 83
12 | 2.5 | 2.5 | Cc1ccc(C(=O)NCCF)cc1C(=O)c1ccc(Nc2ccc(F)cc2F)cc1 [Compound 163, 3-[4-(2,4-Difluoro-phenylamino)-benzoyl]-N-(2-fluoro-ethyl)-4-methyl-benzamide] | 66
13 | 2 | 1.3 | Cc1ccc(C(=O)NC(C)C)cc1C(=O)c1ccc(Nc2ccc(F)cc2F)cc1Cl [Compound 164, 3-[2-Chloro-4-(2,4-difluoro-phenylamino)-benzoyl]-N-isopropyl-4-methyl-benzamide] | 76
14 | 0.4 | 0.5 | Cc1ccc(C(=O)NCC(F)F)cc1C(=O)c1ccc(Nc2ccc(F)cc2F)cc1Cl [Compound 166] | 83
15 | 2.5 | 3.2 | C=CCNC(=O)c1ccc(C)c(C(=O)c2ccc(Nc3ccc(F)cc3F)cc2Cl)c1 [Compound 170, N-Allyl-3-[2-chloro-4-(2,4-difluoro-phenylamino)-benzoyl]-4-methyl-benzamide] | 87

The next lines start with the molecule.

Row | Compound | IC50 [2] [nM] | IC50 [3] [nM] | inhibition at 10 mg/kg [1] [%]
16 | Cc1cc(Br)ccc1Nc1ccc(C(=O)c2cc(C(=O)NCCO)ccc2C)c(Cl)c1 [Compound 114, 3-[4-(4-Bromo-2-methylphenylamino)-2-chlorobenzoyl]-N-(2-hydroxyethyl)-4-methylbenzamide] | 0.4 | 2.5 | 72
17 | Cc1ccc(C(=O)NCCO)cc1C(=O)c1ccc(Nc2ccc(F)cc2F)cc1Cl [Compound 115, 3-[2-Chloro-4-(2,4-difluorophenylamino)benzoyl]-N-(2-hydroxyethyl)-4-methylbenzamide] | 0.3 | 1.3 | 96
18 | COCCNC(=O)c1ccc(C)c(C(=O)c2ccc(Nc3ccccc3N)cc2Cl)c1 [Compound 116, 3-[4-(2-Aminophenylamino)-2-chlorobenzoyl]-N-(2-methoxyethyl)-4-methylbenzamide] | 1 | 1 | 95
19 | CCNC(=O)c1ccc(C)c(C(=O)c2ccc(Nc3ccccc3N)cc2Cl)c1 [Compound 117, 3-[4-(2-Aminophenylamino)-2-chlorobenzoyl]-N-ethyl-4-methylbenzamide] | 1 | 4 | 71
20 | Cc1ccc(C(=O)NCCO)cc1C(=O)c1ccc(Nc2ccc(Cl)cc2F)cc1Cl [Compound 120, 3-[2-Chloro-4-(4-chloro-2-fluoro-phenylamino)-benzoyl]-N-(2-hydroxy-ethyl)-4-methyl-benzamide] | 2 | 2.7 | 86
21 | CCOC(=O)CNC(=O)c1ccc(C)c(C(=O)c2ccc(Nc3ccc(Cl)cc3F)cc2Cl)c1 [Compound 123, {3-[2-Chloro-4-(4-chloro-2-fluoro-phenylamino)-benzoyl]-4-methyl-benzoylamino}acetic acid ethyl ester] | 0.3 | 0.5 | 47
22 | CCNC(=O)c1ccc(C)c(C(=O)c2ccc(Nc3ccc(Cl)cc3F)cc2Cl)c1 [Compound 126, 3-[2-Chloro-4-(4-chloro-2-fluoro-phenylamino)-benzoyl]-N-ethyl-4-methyl-benzamide] | 0.6 | 2.8 | 79
23 | Cc1ccc(C(=O)NCC(C)C)cc1C(=O)c1ccc(Nc2ccc(Cl)cc2F)cc1Cl [Compound 129, 3-[2-Chloro-4-(4-chloro-2-fluoro-phenylamino)-benzoyl]-N-isobutyl-4-methyl-benzamide] | 1.3 | 2.5 | 73
24 | COCCCNC(=O)c1ccc(C)c(C(=O)c2ccc(Nc3ccc(Cl)cc3F)cc2Cl)c1 [Compound 131, 3-[2-Chloro-4-(4-chloro-2-fluoro-phenylamino)-benzoyl]-N-(3-methoxy-propyl)-4-methyl-benzamide] | 1.3 | 3.2 | 70
25 | COc1ccc(C(=O)NCCO)cc1C(=O)c1ccc(Nc2ccc(F)cc2F)cc1Cl [Compound 140, 3-[2-Chloro-4-(2,4-difluoro-phenylamino)-benzoyl]-N-(2-hydroxy-ethyl)-4-methoxy-benzamide] | 1 | 1.4 | 76
